Here are results for six molecules from patent US8383681B2, “Droxidopa and pharmaceutical composition thereof for the treatment of mood disorders, sleep disorders or attention deficit disorders” (Chelsea Therapeutics, Inc., priority 2008, dated 2013).

For one test, the system named is male CD-1 mice. The test can be described thus: murine Forced Swim Test (FST), a mouse model of depression. As to conditions: intraperitoneal; for effect on length of time spent immobile / depression, in words: doses per Table 1, ANOVA followed by T-test, versus vehicle; for length of time the mice spent immobile (average time immobile): one hour after dosing, immobility within the last 4 minutes of 6 minutes, mg/kg per Table 1: desipramine 10, entacapone 30, fluoxetine 18, venlafaxine 10, amitriptyline 10, droxidopa 400, carbidopa 20. Format: in vivo. As to the method:
The effect of droxidopa, alone or in combination with other drugs, in the treatment of depression was evaluated using the murine Forced Swim Test (FST), a mouse model of depression commonly used to evaluate antidepressive drugs. Depression (i.e., “learned helplessness” as evaluated by the FST model) was measured using the method of Porsolt et al., Arch. Int. Pharmacodyn. (1977), 229: 327-336. Briefly, male CD-1 mice weighing 22 g (±2 g) were fasted overnight prior to testing. The mice were randomized into 11 groups of 10 mice each. Mice in each group were treated with the vehicle alone, a drug, or a drug composition as outlined in Table 1 and returned to their respective groups.
In Table 1, the vehicle—2% TWEEN® 80 (i.e., polysorbate 80)—was included in all test compositions. One hour after dosing, the test mice were placed in a 1 liter volume glass beaker (height: 14.5 cm, diameter: 10.5 cm) containing water 6 cm in height at room temperature (22 to 24° C.) for 6 minutes. The duration of animal immobility within the last 4 minutes was then recorded. A mouse was judged to be immobile when it ceased struggling and remained floating in the water making only those movements necessary to keep its head above water. Data were analyzed by ANOVA for significant differences in group means, followed by T-test to distinguish statistically significant groups as appropriate.

In a further test the target is T1, MAO-A (Homo sapiens, UniProt P21397).
T1 sequence (P21397 1-527): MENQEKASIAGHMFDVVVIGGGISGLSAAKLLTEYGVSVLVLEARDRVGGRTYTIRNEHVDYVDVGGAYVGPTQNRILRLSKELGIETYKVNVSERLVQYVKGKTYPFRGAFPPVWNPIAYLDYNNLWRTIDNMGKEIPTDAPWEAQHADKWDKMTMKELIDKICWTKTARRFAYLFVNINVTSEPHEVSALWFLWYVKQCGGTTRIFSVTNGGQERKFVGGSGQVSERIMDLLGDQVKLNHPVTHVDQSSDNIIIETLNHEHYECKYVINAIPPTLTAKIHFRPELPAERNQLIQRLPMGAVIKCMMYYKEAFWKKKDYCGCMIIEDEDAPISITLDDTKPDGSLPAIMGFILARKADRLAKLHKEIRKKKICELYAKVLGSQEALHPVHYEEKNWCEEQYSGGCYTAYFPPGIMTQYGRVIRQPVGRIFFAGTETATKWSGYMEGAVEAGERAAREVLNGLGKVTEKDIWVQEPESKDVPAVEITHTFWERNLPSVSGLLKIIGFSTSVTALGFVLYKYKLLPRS
As to conditions: MAO-A versus MAO-B; cited from earlier work.

Entries after “also recorded” stand apart in the source; their conditions may differ.

For the molecule `CN(C)CCC=C1c2ccccc2CCc2ccccc21` [amitriptyline], in the test with male CD-1 mice, the “effect on length of time spent immobile / depression, in words” value is given as “significant decrease” and the “length of time the mice spent immobile (average time immobile)” value (“length of time the mice spent immobile” for short) came to 60.0 s.

Take `CNCCCN1c2ccccc2CCc2ccccc21` [desipramine]: in the test with male CD-1 mice, the “effect on length of time spent immobile / depression, in words” value is listed as “did not significantly decrease; also recorded: failed to decrease depression” and the “length of time the mice spent immobile” value worked out at 136.4 s.

`CCN(CC)C(=O)/C(C#N)=C/c1cc(O)c(O)c([N+](=O)[O-])c1` [entacapone, (E)-2-cyano-N,N-diethyl-3-(3,4-dihydroxy-5-nitrophenyl)propenamide]: in the test with male CD-1 mice, the “effect on length of time spent immobile / depression, in words” value is listed as “did not significantly decrease” and the “length of time the mice spent immobile” value was 129.9 s.

Regarding `CNCCC(Oc1ccc(C(F)(F)F)cc1)c1ccccc1` (centres unmarked) [fluoxetine], in the test with male CD-1 mice, the “effect on length of time spent immobile / depression, in words” value is “did not significantly decrease; also recorded: failed to decrease depression” and the “length of time the mice spent immobile” value is 158.2 s.

In the case of `O=C(NCCN1CCOCC1)c1ccc(Cl)cc1` [moclobemide], at MAO-A, the “selectivity for MAO-A than MAO-B” value is listed as “approximately three times more selective for MAO-A than MAO-B”.

For the molecule `COc1ccc(C(CN(C)C)C2(O)CCCCC2)cc1` (centres unmarked) [venlafaxine], in the test on male CD-1 mice, the “effect on length of time spent immobile / depression, in words” value was “did not significantly decrease; also recorded: failed to decrease depression” and the “length of time the mice spent immobile” value worked out at 117.5 s.
